Test results reported in patent US6632795B1, “Dolastatin-15 derivatives in combination with taxanes” (BASF Aktiengesellschaft, priority 1997, dated 2003).
Peptide text beside a SMILES is read from it.

Experiments:
[1] = tested on: LX-1 human lung tumor xenograft; test: LX-1 human tumor xenograft model; type: in vivo, human (xenograft in athymic nude mice); settings: Q2Dx3, 5,12,19
Protocol: (§1) Human tumors from lung (LX-1), colon (CX-1) and prostate (PC-3) which had been grown in athymic nude mice were transplanted (xenografted) into new recipient mice, as is well known in the art. The transplanted tumor fragments were approximately 50 mg in size. The day of transplantation was designated as day 0. The combination therapy of the present invention was evaluated for anti-tumor efficacy following administration to the xenograft-bearing mice.
(§2) Combination therapy was accomplished by intravenous administration of both drugs. […] In other words, treatment consisted of 3 cycles, starting on days 5, 12 and 19 post tumor implantation. One cycle of treatment consisted of treatment every other day for a total of three times.
(§3) Tumor diameters and body weights were measured twice weekly. Tumor volumes were calculated using the diameters measured with Vernier calipers, and the formula:
(§4) (length×width^2)/2=mg of tumor weight
(§5) Mean tumor weights (MTW) were calculated for each treatment group, and T/C values determined for each group relative to the untreated control tumors.
(§6) Results are also presented as Net log Cell Kill and are calculated as follows: [formula]
(§7) T and C=The median days required for the control and treated tumors to reach a specified tumor size, in this instance 2000 mm^3.
(§8) Doubling Time=Time required for control tumors to double in size.
(§9) The Q2dx3; 5, 12 and 19 dosing regimen described above was used in this example. Paclitaxel was administered IV one hour after Compound (xvii) was administered IV.

[2] = tested on: CX-1 human colon tumor xenograft; test: CX-1 human tumor xenograft model; type: in vivo, human (xenograft in athymic nude mice); settings: Q2Dx3, 5,12,19
Protocol: as §1, §2, §3, §4, §5, §6, §7, §8, §9

[3] = tested on: P388 tumor cells (murine lymphocytic leukemia cell line); test: P388 in vivo tumor model (ascites, intraperitoneal implant); parameters: species or system mice; settings: Q4Dx3, 1
Protocol: The P388 tumor model employs a murine lymphocytic leukemia cell line (See Schabel et al., Pharmac. Ther. A, 1:411-435). The P388 tumor cells used in this invention, were harvested from donor mice by peritoneal lavage at day 7 post transplant. 1×10^6 P388 tumor cells were then implanted intraperitoneally in a volume of 0.5 ml in mice.
A typical dosing regimen includes initiation of treatment approximately one day post transplant followed by treatment on days 5 and 9 post transplant. Generally the compounds of Formula I are administered intravenously (i.v.) and the paclitaxel, taxotere or modified taxane or taxoid analog is administered intraperitoneally (i.p.).
Therapeutic results of the combinations of the invention against P388 cells, are presented in terms of increase in lifespan reflected by the relative median survival time (MST) of treated (T) versus control (C) group (survival period for untreated mice is generally in the range of 11 to 13 days) and is represented as %T/C values. According to the National Cancer Institute guidelines a %T/C in the range or 128-190% indicates a drug with moderate to good activity. In addition, the Net log Cell Kill is used to compare efficacy of different schedules and combinations, and is calculated as follows: [formula]
Doubling Time=time required for control tumors to double once (0.4 days)
T and C=the median survival time (days) for the control (C) and treated (T) mice.
Duration of treatment with drug 0.332=Derived constant
1×10^6 P388 tumor cells were transplanted intraperitoneally in a volume of 0.5 ml in mice. Treatment was initiated approximately 1 day later followed by treatment on both day 5 and day 9, post transplant. Compound (xvii) was administered IV while paclitaxel was administered IP. […] The dosing was sequential with compound (xvii) being administered first followed by paclitaxel one hour later.

[4] = tested on: PC-3 human prostate tumor xenograft; test: PC-3 human tumor xenograft model; type: in vivo, human (xenograft in athymic nude mice); settings: Q2Dx3, 5,12,19; for MTW d35 % T/C: mean tumor weight day 35; for R[…]: of 6 animals
Protocol: as §1, §2, §3, §4, §5, §6, §7, §8
The Q2dx3; 5, 12 and 19 dosing regimen described above was used in this example. Paclitaxel was administered IP one hour after Compound (xvii) was administered IV. The optimal single dose of both paclitaxel and Compound (xvii) was not determined.

[5] = cited from earlier work
[6] = tested on: National Cancer Institute's P388 lymphocytic leukemia cell line; settings: cited from earlier work
[7] = paclitaxel 10 mg/kg IV alone, of 6 animals

For CC(C)[C@H](NC(=O)[C@H](C(C)C)N(C)C)C(=O)N(C)[C@H](C(=O)N1CCC[C@H]1C(=O)N1CCC[C@H]1C(=O)NCc1ccccc1)C(C)C [Compound (xvii)] (HELM PEPTIDE1{[CC(C)[C@@H](C(=O)[*:2])N(C)C].V.[meV].P.P.[c1ccc(CN[*:1])cc1]}$$$$V2.0), the “% Toxic Death” value ([1]; (xvii) 7.5 mg/kg IV alone) was 0%, the “% Toxic Death” value ([1]; (xvii) 15 mg/kg IV alone) was 0% and the “% Toxic Death” value ([1]; (xvii) 25 mg/kg IV alone) was 0%. For the same molecule, the “% Toxic Death” value ([2]; (xvii) 25 mg/kg IV alone) was 83%, the “% Toxic Death” value ([3]; (xvii) 20 mg/kg IV alone) was 0% and the “% Toxic Death” value ([3]; (xvii) 40 mg/kg IV alone) was 0%. For the same molecule, the “% Toxic Death” value ([3]; (xvii) 60 mg/kg IV alone) was 0% and the “% Toxic Death” value ([4]; (xvii) 30 mg/kg IV alone) was 33%.
With CC(=O)O[C@H]1C(=O)[C@@]2(C)[C@H]([C@H](OC(=O)c3ccccc3)[C@]3(O)C[C@H](OC(=O)[C@H](O)[C@@H](NC(=O)c4ccccc4)c4ccccc4)C(C)=C1C3(C)C)[C@]1(OC(C)=O)CO[C@@H]1C[C@@H]2O [Paclitaxel] the “% Toxic Death” value ([1]; paclitaxel 10 mg/kg IV alone) was 0%, the “Net Log Cell Kill” value ([1]; paclitaxel 10 mg/kg IV alone) was −0.374 and the “MTW d27 % T/C” value ([1]; paclitaxel 10 mg/kg IV alone, mean tumor weight day 27) was 10.5%. For the same molecule, the “R[…]” value [1, 7] was 2, the “Net Log Cell Kill” value ([2]; paclitaxel 10 mg/kg IV alone) was −0.124 and the “MTW d55 % T/C” value ([2]; paclitaxel 10 mg/kg IV alone, mean tumor weight day 55) was 38.12%. For the same molecule, the “R[…]” value [2, 7] was 2, the “% T/C (median survival time treated vs control)” value ([3]; paclitaxel 10 mg/kg IP alone) was 183% and the “% Toxic Death” value ([3]; paclitaxel 10 mg/kg IP alone) was 0%. The “Net Log Cell Kill” value ([3]; paclitaxel 10 mg/kg IP alone) was 1.33, the “% 60 Day Cures” value ([3]; paclitaxel 20 mg/kg IP alone) was 4% and the “% T/C (median survival time treated vs control)” value ([3]; paclitaxel 20 mg/kg IP alone) was 175%. The “% Toxic Death” value ([3]; paclitaxel 20 mg/kg IP alone) was 0%, the “Net Log Cell Kill” value ([3]; paclitaxel 20 mg/kg IP alone) was 0.66 and the “% 60 Day Cures” value ([3]; paclitaxel 30 mg/kg IP alone) was 3%. The “% T/C (median survival time treated vs control)” value ([3]; paclitaxel 30 mg/kg IP alone) was 204%, the “% Toxic Death” value ([3]; paclitaxel 30 mg/kg IP alone) was 8% and the “Net Log Cell Kill” value ([3]; paclitaxel 30 mg/kg IP alone) was 2.99. For the same molecule, the “% Toxic Death” value ([4]; paclitaxel 10 mg/kg IP alone) was 0%, the “Net Log Cell Kill” value ([4]; paclitaxel 10 mg/kg IP alone) was −0.672 and the “MTW d35 % T/C” value ([4]; paclitaxel 10 mg/kg IP alone) was 55.12%. For the same molecule, the “R[…]” value ([4]; paclitaxel 10 mg/kg IP alone) was 2, the “% Toxic Death” value ([4]; paclitaxel 20 mg/kg IP alone) was 0% and the “Net Log Cell Kill” value ([4]; paclitaxel 20 mg/kg IP alone) was 1.98. The “MTW d35 % T/C” value ([4]; paclitaxel 20 mg/kg IP alone) was 2.86%, the “% Toxic Death” value ([4]; paclitaxel 30 mg/kg IP alone) was 17% and the “Net Log Cell Kill” value ([4]; paclitaxel 30 mg/kg IP alone) was “toxic”. For the same molecule, the “MTW d35 % T/C” value ([4]; paclitaxel 30 mg/kg IP alone) was 2% and the “R[…]” value ([4]; paclitaxel 30 mg/kg IP alone) was 5.
In the case of Dolastatin-15, the “aqueous solubility (in words)” value [5] is listed as “poor aqueous solubility” and the “inhibition of cell growth (in words)” value [6] is listed as “markedly inhibits the growth”.
